For orientation: pEC50 means the negative decadic logarithm of the EC50, by convention in mol/L.

SMILES strings stand for the structures. pEC50: −log10 of the molar value.

Mouse TAAR 1, sequence (Q923Y8 whole entry): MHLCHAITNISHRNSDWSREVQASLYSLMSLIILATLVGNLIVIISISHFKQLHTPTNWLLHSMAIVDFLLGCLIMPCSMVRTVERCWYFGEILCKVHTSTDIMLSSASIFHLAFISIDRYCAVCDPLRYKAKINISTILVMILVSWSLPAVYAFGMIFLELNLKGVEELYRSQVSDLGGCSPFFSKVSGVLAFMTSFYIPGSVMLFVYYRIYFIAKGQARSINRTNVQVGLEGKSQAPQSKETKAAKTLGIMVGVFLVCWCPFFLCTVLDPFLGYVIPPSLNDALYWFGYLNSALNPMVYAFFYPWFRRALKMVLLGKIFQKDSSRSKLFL

One experiment addresses Mouse TAAR 1 (Mus musculus, UniProt Q923Y8). Nature of the experiment: cAMP Biotrak EIA functional assay in HEK293 cells stably expressing mTAAR1. It counts as cell-based.
Conditions: not given
The text has this:
Stable cell lines: For the generation of stably transfected cell lines HEK cells were transfected with the pIRES-NEO2 expression vectors of the respective TAARs by using Lipofectamin 2000 transfection reagent and Optimem 1 reduced serum medium with Glutamax (Invitrogen Cat. # 51985-026) following the recommendations given in the Lipofectamine 2000 datasheet. After 24 hr post transfection cells were trypsinated and transferred into 90 mm tissue culture dishes (Nunc) at dilutions between 1:10-1:300 in culture medium supplemented with 1 mg/ml G418 which was renewed on a daily basis. […] Picking of clones was performed by detaching the entire clone from the culture dish using a 1 ml Gilson pipette, trypsinizing the clone in a 1.5 ml Eppendorf cup using Trypsin/EDTA (Invitrogen Cat. # 25300-062) and plating them into a 48 well dish, from where the cells were subsequently expanded by transferring them to increasing culture surface areas (48 well—12 well—60 mm etc.). Whenever cells were transferred to a new plate they were carefully trypsinized. As soon as single clones were selected, the concentration of G418 in the culture medium was reduced to 500 µg/ml.
`NCCc1c[nH]c2ccccc12` [TRY, tryptamine] had a pEC50 of 5.70.

For the compound `NCCc1c[nH]c2ccc(O)cc12` [Serotonin, 5-HT, Serotonin], the negative-log EC50 (pEC50) was < 4.30.

On to `NCCc1ccccc1` [β-PEA, β-phenylethylamine], for which the pEC50 is 6.18.

Still in this experiment, the particulars now being: maximal response as percentage of the maximal cAMP levels induced by p-TYR; HEK293 cells stably expressing mTAAR1.
Turning to `NCC(O)c1ccc(O)cc1` (stereo not drawn) [OCT, octopamine], the “Max (96)” value is given as 100 percentage.

The same experiment, now with this note: read-out: EC50.
`NCC(O)c1ccc(O)cc1` (stereo not drawn) [OCT, octopamine]: the negative logarithm of the EC50 (pEC50) was 4.71.

As for `NCCc1ccc(O)c(O)c1` [Dopamine, dopamine], the pEC50 was 4.93.

On to `CNCCc1ccccc1` [N-methyl-β-PEA], for which the pEC50 is 6.82.

`NCCc1c[nH]cn1` [Histamine, histamine]: the pEC50 was < 4.30.

Consider `NC[C@H](O)c1ccc(O)c(O)c1` [Norepinephrine, norepinephrine], for which the pEC50 was < 4.30.

The values are drawn from US20060008880A1, “Mouse trace amine associated receptors and polypeptides” (priority 2004, published 2006).
